{
  "source": "patent US12031173B2",
  "about": "“Methods of producing polyol lipids” (THE REGENTS OF THE UNIVERSITY OF CALIFORNIA, priority 2016, dated 2024)",
  "test": "Surface tension of aqueous PEFA solutions, Wilhelmy plate method",
  "format": "physicochemical",
  "details": "aqueous solution",
  "method": "Surface Tension: Surface tensions were measured, using Wilhelmy plate method (Digital Tensiometer K10ST, KRÜSS) for different concentrations of PEFA in aqueous solution. The stabilization time was from 30 minutes in higher concentration to as long as 2 hours in lower concentration (below 2.5 mg/L). The final data was recorded when the measured surface tension became stable.",
  "data": [
    {"smiles": "CC(=O)OC[C@H]1O[C@H]2O[C@@H](C)CCCCCC/C=C\\CCCCCCCC(=O)O[C@H]3[C@H](O)[C@@H](O)[C@H](O[C@@H]2[C@@H](O)[C@@H]1O)O[C@@H]3COC(C)=O", "note": "[Sophorolipid, 1′,4″-Sophorolactone 6′,6″-diacetate]", "values": [
      {"measurement": "Average area occupied by each molecule", "value": 54.7, "unit": "Å^2/molecule"},
      {"measurement": "Surface excess concentration", "value": "2.93 × 10^−6 mol/m^2"},
      {"measurement": "Critical Micelle Concentration", "setting": "Wilhelmy plate", "value": 15.2, "unit": "mg/L"},
      {"measurement": "Minimum surface tension", "setting": "Wilhelmy plate", "value": 36.8, "unit": "mN/m"},
      {"measurement": "Slope of linear part for surface tension line", "setting": "Wilhelmy plate", "value": "−11.14", "unit": "mN/m"}
    ]}
  ]
}
